Source: patent publication US20250100995A1, “CEREBLON BINDING COMPOUNDS, COMPOSITIONS THEREOF, AND METHODS OF TREATMENT THEREWITH” (CELGENE CORPORATION, priority 2021, published 2025)
Where a name gives a salt, the structure may show the parent alone.

Target: T1, AR (Homo sapiens, UniProt P10275)
T1 construct: endogenous in cells; host or cells: VCaP cells
T1 sequence (P10275 1-920): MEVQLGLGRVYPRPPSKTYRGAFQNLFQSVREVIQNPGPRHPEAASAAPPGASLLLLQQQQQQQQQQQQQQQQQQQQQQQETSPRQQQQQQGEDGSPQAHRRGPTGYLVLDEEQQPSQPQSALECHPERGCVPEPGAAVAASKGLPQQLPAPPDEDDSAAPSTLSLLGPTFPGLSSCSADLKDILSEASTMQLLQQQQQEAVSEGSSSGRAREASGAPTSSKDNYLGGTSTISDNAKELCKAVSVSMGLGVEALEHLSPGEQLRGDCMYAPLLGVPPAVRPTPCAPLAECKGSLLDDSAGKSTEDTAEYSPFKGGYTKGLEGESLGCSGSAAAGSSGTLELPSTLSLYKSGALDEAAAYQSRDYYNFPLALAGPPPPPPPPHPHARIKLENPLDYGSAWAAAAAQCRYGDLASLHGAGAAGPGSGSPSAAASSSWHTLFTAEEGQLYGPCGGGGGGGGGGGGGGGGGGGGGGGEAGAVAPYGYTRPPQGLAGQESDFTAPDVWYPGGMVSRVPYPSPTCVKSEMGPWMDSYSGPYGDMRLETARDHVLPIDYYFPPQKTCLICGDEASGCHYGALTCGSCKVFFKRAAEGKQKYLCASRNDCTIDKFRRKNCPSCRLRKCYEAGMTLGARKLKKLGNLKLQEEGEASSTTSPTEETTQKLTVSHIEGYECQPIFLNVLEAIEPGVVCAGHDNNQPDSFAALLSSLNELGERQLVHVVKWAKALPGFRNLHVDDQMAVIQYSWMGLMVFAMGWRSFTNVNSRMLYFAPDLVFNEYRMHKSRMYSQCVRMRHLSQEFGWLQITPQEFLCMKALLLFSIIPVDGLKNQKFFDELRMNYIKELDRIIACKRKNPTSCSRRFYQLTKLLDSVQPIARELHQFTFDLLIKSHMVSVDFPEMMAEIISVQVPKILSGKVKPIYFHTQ
Assay: VCAP AR Degradation Assay
Format: cell-based
Settings: VCaP cells, 24 h, AR ELISA; for DC50: concentration of compound when AR level = 50% of DMSO control; for Y: lowest measured AR level normalized to DMSO control (AR degradation efficiency)
Description: VCAP AR Degradation Assay. Test compounds were pre-dispensed into a Corning CellBind 96-well clear bottom plate (Cat #3300) using an acoustic dispenser to make a 10-point concentration series at 1:3 dilution for each compound. The final top concentration of each compound was 5 μM. DMSO at a final concentration of 0.1% was used as a control. VCaP cells cultured in DMEM with 8% fetal bovine serum (FBS) were seeded at 50K cells per well in a 200 μL volume into the compound plate and incubated at 37° C. in a CO2 incubator for 24 h. The medium was carefully removed from the cells and the plate was placed on ice. One hundred μL of ice-cold 1× cell lysis buffer from Cell Signaling Technologies (Cat #9803) was added to each well of the cells and the plate was incubated at 4° C. on a shaker for 1 h. Fifteen μL of cell lysate was used for AR ELISA detection using a PathScan Total Sandwich AR ELISA kit (Cell Signaling Technology, Cat #12580). AR levels in compound-treated wells were normalized to that of DMSO control and expressed as percent of control (PoC) (y). A Four Parameter Logistic Model (Sigmoidal Dose-Response Model) was used to determine the compound's DC50, and EC50, using the following equation: […]
The lowest measured AR level normalized to DMSO control in response to compound treatment, termed Y value, was used to characterize the compound-mediated AR degradation efficiency.

SMILES	DC50	Y	Y (hydrochloride)
C[C@@H]1CN(CCO[C@H]2CC[C@H](N3C(=S)N(c4ccc(C#N)c(C(F)(F)F)c4)C(=O)C3(C)C)CC2)C[C@H](C)N1CC(=O)Nc1ccc(C2(C)CCC(=O)NC2=O)cn1 (single isomer, unassigned) [Cmpd 5, hydrochloride]	> 200 nM	*** (40%<Y<80%)	–
C[C@@H]1CN(CCO[C@H]2CC[C@H](N3C(=S)N(c4ccc(C#N)c(C(F)(F)F)c4)C(=O)C3(C)C)CC2)C[C@H](C)N1CC(=O)Nc1ccc(C2(C)CCC(=O)NC2=O)cn1 (single isomer, unassigned) [Cmpd 6, hydrochloride]	> 200 nM	*** (40%<Y<80%)	–
C[C@@H]1CN(CCCO[C@H]2CC[C@H](N3C(=S)N(c4ccc(C#N)c(C(F)(F)F)c4)C(=O)C3(C)C)CC2)C[C@H](C)N1CC(=O)Nc1cc(N2CCC(=O)NC2=O)ccn1 (single isomer, unassigned) [Cmpd 7, hydrochloride]	> 200 nM	*** (40%<Y<80%)	–
C[C@@H]1CN(CCO[C@H]2CC[C@H](N3C(=S)N(c4ccc(C#N)c(C(F)(F)F)c4)C(=O)C3(C)C)CC2)C[C@H](C)N1CC(=O)Nc1cc(C2(C)CCC(=O)NC2=O)ccn1 (single isomer, unassigned) [Cmpd 8, hydrochloride]	≤ 5 nM	–	* (0<Y≤20%)
C[C@@H]1CN(CCO[C@H]2CC[C@H](N3C(=S)N(c4ccc(C#N)c(C(F)(F)F)c4)C(=O)C3(C)C)CC2)C[C@H](C)N1CC(=O)Nc1cc(C2(C)CCC(=O)NC2=O)ccn1 (single isomer, unassigned) [Cmpd 9, hydrochloride]	≤ 5 nM	–	** (20%<Y≤40%)
C[C@@H]1CN(CCO[C@H]2CC[C@H](N3C(=S)N(c4ccc(C#N)c(C(F)(F)F)c4)C(=O)C3(C)C)CC2)C[C@H](C)N1CC(=O)Nc1cc(C2CCC(=O)NC2=O)ccn1 (stereo partly drawn) [Cmpd 1, 2-((2R,6S)-4-(2-((trans-4-(3-(4-Cyano-3-(trifluoromethyl)phenyl)-5,5-dimethyl-4-oxo-2-thioxoimidazolidin-1-yl)cyclohexyl)oxy)ethyl)-2,6-dimethylpiperazin-1-yl)-N-(4-(2,6-dioxopiperidin-3-yl)pyridin-2-yl)acetamide hydrochloride]	5 to 50 nM	** (20%<Y≤40%)	–
C[C@@H]1CN(CCO[C@H]2CC[C@H](N3C(=S)N(c4ccc(C#N)c(C(F)(F)F)c4)C(=O)C3(C)C)CC2)C[C@H](C)N1CC(=O)Nc1ccc(C2CCC(=O)NC2=O)cn1 (stereo partly drawn) [Cmpd 2, 2-((2R,6S)-4-(2-((trans-4-(3-(4-Cyano-3-(trifluoromethyl)phenyl)-5,5-dimethyl-4-oxo-2-thioxoimidazolidin-1-yl)cyclohexyl)oxy)ethyl)-2,6-dimethylpiperazin-1-yl)-N-(5-(2,6-dioxopiperidin-3-yl)pyridin-2-yl)acetamide hydrochloride]	5 to 50 nM	** (20%<Y≤40%)	–
C[C@@H]1CN(CCO[C@H]2CC[C@H](N3C(=S)N(c4ccc(C#N)c(C(F)(F)F)c4)C(=O)C3(C)C)CC2)C[C@H](C)N1CC(=O)Nc1ccc(N2CCC(=O)NC2=O)cn1 [Cmpd 3, 2-((2R,6S)-4-(2-((trans-4-(3-(4-Cyano-3-(trifluoromethyl)phenyl)-5,5-dimethyl-4-oxo-2-thioxoimidazolidin-1-yl)cyclohexyl)oxy)ethyl)-2,6-dimethylpiperazin-1-yl)-N-(5-(2,4-dioxotetrahydropyrimidin-1(2H)-yl)pyridin-2-yl)acetamide hydrochloride]	> 200 nM	*** (40%<Y<80%)	–
C[C@@H]1CN(CCO[C@H]2CC[C@H](N3C(=S)N(c4ccc(C#N)c(Cl)c4)C(=O)C3(C)C)CC2)C[C@H](C)N1CC(=O)Nc1cc(C2CCC(=O)NC2=O)ccn1 (stereo partly drawn) [Cmpd 4, 2-((2R,6S)-4-(2-((trans-4-(3-(3-Chloro-4-cyanophenyl)-5,5-dimethyl-4-oxo-2-thioxoimidazolidin-1-yl)cyclohexyl)oxy)ethyl)-2,6-dimethylpiperazin-1-yl)-N-(4-(2,6-dioxopiperidin-3-yl)pyridin-2-yl)acetamide hydrochloride]	5 to 50 nM	** (20%<Y≤40%)	–
C[C@@H]1CN(CCCO[C@H]2CC[C@H](N3C(=S)N(c4ccc(C#N)c(C(F)(F)F)c4)C(=O)C3(C)C)CC2)C[C@H](C)N1CC(=O)Nc1ccc(C2CCC(=O)NC2=O)cn1 (stereo partly drawn) [Cmpd 10, 2-((2R,6S)-4-(3-((trans-4-(3-(4-Cyano-3-(trifluoromethyl)phenyl)-5,5-dimethyl-4-oxo-2-thioxoimidazolidin-1-yl)cyclohexyl)oxy)propyl)-2,6-dimethylpiperazin-1-yl)-N-(5-(2,6-dioxopiperidin-3-yl)pyridin-2-yl)acetamide hydrochloride]	> 200 nM	*** (40%<Y<80%)	–
C[C@@H]1CN(CCO[C@H]2CC[C@H](N3C(=S)N(c4ccc(C#N)c(C(F)(F)F)c4)C(=O)C3(C)C)CC2)C[C@H](C)N1CCOc1ccc(N2CCC(=O)NC2=O)cn1 [Cmpd 11, 4-(3-(trans-4-(2-((3R,5S)-4-(2-((5-(2,4-Dioxotetrahydropyrimidin-1(2H)-yl)pyridin-2-yl)oxy)ethyl)-3,5-dimethylpiperazin-1-yl)ethoxy)cyclohexyl)-4,4-dimethyl-5-oxo-2-thioxoimidazolidin-1-yl)-2-(trifluoromethyl)benzonitrile hydrochloride]	> 200 nM	*** (40%<Y<80%)	–
C[C@@H]1CN(CCO[C@H]2CC[C@H](N3C(=S)N(c4ccc(C#N)c(C(F)(F)F)c4)C(=O)C3(C)C)CC2)C[C@H](C)N1CCCOc1ccc(N2CCC(=O)NC2=O)cn1 [Cmpd 12, 4-(3-(trans-4-(2-((3R,5S)-4-(3-((5-(2,4-Dioxotetrahydropyrimidin-1(2H)-yl)pyridin-2-yl)oxy)propyl)-3,5-dimethylpiperazin-1-yl)ethoxy)cyclohexyl)-4,4-dimethyl-5-oxo-2-thioxoimidazolidin-1-yl)-2-(trifluoromethyl)benzonitrile hydrochloride]	> 200 nM	*** (40%<Y<80%)	–
C[C@@H]1CN(CCCO[C@H]2CC[C@H](N3C(=S)N(c4ccc(C#N)c(C(F)(F)F)c4)C(=O)C3(C)C)CC2)C[C@H](C)N1CC(=O)Nc1cc(C2CCC(=O)NC2=O)ccn1 (stereo partly drawn) [Cmpd 13, 2-((2R,6S)-4-(3-((trans-4-(3-(4-Cyano-3-(trifluoromethyl)phenyl)-5,5-dimethyl-4-oxo-2-thioxoimidazolidin-1-yl)cyclohexyl)oxy)propyl)-2,6-dimethylpiperazin-1-yl)-N-(4-(2,6-dioxopiperidin-3-yl)pyridin-2-yl)acetamide hydrochloride]	≤ 5 nM	*** (40%<Y<80%)	–
C[C@@H]1CN(CCCC[C@H]2CC[C@H](N3C(=S)N(c4ccc(C#N)c(C(F)(F)F)c4)C(=O)C3(C)C)CC2)C[C@H](C)N1CC(=O)Nc1cc(C2CCC(=O)NC2=O)ccn1 (stereo partly drawn) [Cmpd 14, 2-((2R,6S)-4-(4-(trans-4-(3-(4-Cyano-3-(trifluoromethyl)phenyl)-5,5-dimethyl-4-oxo-2-thioxoimidazolidin-1-yl)cyclohexyl)butyl)-2,6-dimethylpiperazin-1-yl)-N-(4-(2,6-dioxopiperidin-3-yl)pyridin-2-yl)acetamide hydrochloride]	5 to 50 nM	* (0<Y≤20%)	–
